Experimental data reported in ChEMBL document CHEMBL3132803 (Medchemcomm, 2013).

Experiments:
[1] = Cytotoxicity against human […] cells assessed as inhibition of cell proliferation after 3 days by coulter counter analysis; format: functional, cell-based; conditions: 72 h
Raji = assay: Cytotoxicity against human Raji cells assessed as inhibition of cell proliferation after 3 days by coulter counter analysis; format: functional, cell-based; conditions: 72 h
DU-145 = assay: Cytotoxicity against human DU145 cells assessed as inhibition of cell proliferation after 24 hrs by MTT assay; format: functional, cell-based; conditions: DU-145, 24 h
Serum = assay: Ratio of AUC in CSF to AUC in serum of Sprague-Dawley rat at 2.5 mg/kg, iv; format: ADME, organism-based; set-up: dose 2.5 mg/kg, route intravenous
[2] = AUC in Sprague-Dawley rat CSF at 2.5 mg/kg, iv administered as single dose by CE-UV analysis; format: ADME, organism-based; set-up: dose 2.5 mg/kg, route intravenous; conditions: cerebrospinal fluid
[3] = AUC in Sprague-Dawley rat serum at 2.5 mg/kg, iv administered as single dose by CE-UV analysis; format: ADME, organism-based; set-up: dose 2.5 mg/kg, route intravenous

`CNC(=O)N[C@H]1[C@@H]2NC(=O)c3ccc(Br)n3[C@@H]2C[C@H]1O` gave an IC50 [1] greater than 10000 nM and an IC50 (Raji) greater than 10000 nM.
In the case of `CN1C(=O)N[C@@H]2[C@H]3NC(=O)c4ccc(Br)n4[C@H]3C[C@@]21O`, the IC50 (DU-145) is reported as greater than 10000 nM.
Molecule `O=C1N[C@H]2[C@@H]3NC(=O)c4cccn4[C@@H]3C[C@H]2O1` has an IC50 [1] greater than 10000 nM and an IC50 (Raji) greater than 10000 nM.
`CNC(=O)N[C@H]1[C@@H]2NC(=O)c3cccn3[C@@H]2C[C@H]1O` showed an IC50 [1] greater than 10000 nM and an IC50 (Raji) greater than 10000 nM.
In the case of `CN1C(=O)N[C@H]2[C@@H]3NC(=O)c4cccn4[C@@H]3C[C@]21O`, the IC50 [1] is reported as 3000 nM, the IC50 (Raji) is reported as 3160 nM and the IC50 (DU-145) is reported as greater than 10000 nM.
`CCN1C(=O)N[C@H]2[C@@H]3NC(=O)c4cccn4[C@@H]3C[C@]21O` gave an IC50 (DU-145) greater than 10000 nM.
In the case of `CN1C(=O)N[C@H]2[C@@H]3NC(=O)c4ccc(Cl)n4[C@@H]3C[C@]21O`, the “Ratio AUC” value (Serum) is reported as 16%, the AUC [2] is reported as 3.75 µM·h and the AUC [3] is reported as 22.8 µM·h. The IC50 [1] was 80 nM, the IC50 (Raji) was 180 nM and the IC50 (DU-145) was 1200 nM.
In the case of `CCN1C(=O)N[C@H]2[C@@H]3NC(=O)c4ccc(Cl)n4[C@@H]3C[C@]21O`, the “Ratio AUC” value (Serum) is reported as 27%, the AUC [2] is reported as 10.1 µM·h and the AUC [3] is reported as 37.5 µM·h. For the same molecule, the IC50 [1] was 280 nM, the IC50 (Raji) was 300 nM and the IC50 (DU-145) was 2600 nM.
With `CCN1C(=O)N[C@H]2[C@@H]3NC(=O)c4cc(Cl)c(Cl)n4[C@@H]3C[C@]21O` the “Ratio AUC” value (Serum) was 30.7%, the AUC [2] was 7.6 µM·h and the AUC [3] was 24.8 µM·h. It also gave an IC50 [1] of 440 nM, an IC50 (Raji) of 620 nM and an IC50 (DU-145) of 1400 nM.
For `CCN1C(=O)N[C@H]2[C@@H]3NC(=O)c4ccc(Br)n4[C@@H]3C[C@]21O`, the IC50 (DU-145) was greater than 10000 nM.
Molecule `COc1ccc(CN2C(=O)N[C@H]3[C@@H]4NC(=O)c5ccc(Br)n5[C@@H]4C[C@]32O)cc1` has an IC50 (DU-145) greater than 10000 nM.
In the case of `CN1C(=O)N[C@H]2[C@@H]3NC(=O)c4ccc(C5CC5)n4[C@@H]3C[C@]21O`, the IC50 [1] is reported as 1000 nM, the IC50 (Raji) is reported as 400 nM and the IC50 (DU-145) is reported as 5000 nM.
Work on `CN1C(=O)N[C@H]2[C@@H]3NC(=O)c4ccc(-c5ccccc5)n4[C@@H]3C[C@]21O` yielded an IC50 [1] of 1500 nM, an IC50 (Raji) of 3800 nM and an IC50 (DU-145) of 6000 nM.
`CN1C(=O)N[C@H]2[C@@H]3NC(=O)c4ccc(-c5ccc(N)cc5)n4[C@@H]3C[C@]21O` gave an IC50 (DU-145) greater than 10000 nM.
`CN1C(=O)N[C@H]2[C@@H]3NC(=O)c4ccc(Br)n4[C@@H]3C[C@]21O` [AGELASTATIN A] gave an AUC [2] of 3.41 µM·h, an AUC [3] of 53.2 µM·h and an IC50 [1] of 2800 nM. The IC50 (Raji) was 140 nM and the IC50 (DU-145) was 2300 nM.
